The source made the active and inactive calls.
Experiments:
Protein skinhead-1 = target: T1, Protein skinhead-1 (Caenorhabditis elegans, UniProt P34707); type: functional
T1 sequence (P34707 whole entry): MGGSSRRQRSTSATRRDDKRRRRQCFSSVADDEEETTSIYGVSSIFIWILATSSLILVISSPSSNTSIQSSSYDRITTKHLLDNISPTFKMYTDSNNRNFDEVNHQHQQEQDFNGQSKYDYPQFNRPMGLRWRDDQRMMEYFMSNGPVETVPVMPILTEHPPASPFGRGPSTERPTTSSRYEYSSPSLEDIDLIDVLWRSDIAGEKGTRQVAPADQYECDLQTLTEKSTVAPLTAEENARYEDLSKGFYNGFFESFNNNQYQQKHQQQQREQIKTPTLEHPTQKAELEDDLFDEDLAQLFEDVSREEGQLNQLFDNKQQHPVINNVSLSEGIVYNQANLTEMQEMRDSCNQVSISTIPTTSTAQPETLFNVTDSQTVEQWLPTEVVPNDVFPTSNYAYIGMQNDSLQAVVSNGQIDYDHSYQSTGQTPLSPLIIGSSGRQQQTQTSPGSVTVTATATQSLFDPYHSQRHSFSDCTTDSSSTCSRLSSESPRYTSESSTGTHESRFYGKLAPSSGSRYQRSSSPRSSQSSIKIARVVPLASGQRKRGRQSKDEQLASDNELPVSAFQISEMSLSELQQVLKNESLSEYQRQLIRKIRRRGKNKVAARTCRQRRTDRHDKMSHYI

[1] = target: FAD-linked sulfhydryl oxidase ALR (Homo sapiens, UniProt P55789); assay: ALR-catalysed DTT oxidation blockers – biochemical, H2O2 detection, luminescence, cherry-pick, dose response (AID 493248)
[2] = target: T2, Short transient receptor potential channel 4 (Mus musculus, UniProt Q9QUQ5); assay: calcium entry via TRPC4 opening agents – cell-based, HEK293 TRPC4/mu-opioid, Fluo-4 calcium, dose response (AID 434937); type: functional
T2 sequence (Q9QUQ5 whole entry): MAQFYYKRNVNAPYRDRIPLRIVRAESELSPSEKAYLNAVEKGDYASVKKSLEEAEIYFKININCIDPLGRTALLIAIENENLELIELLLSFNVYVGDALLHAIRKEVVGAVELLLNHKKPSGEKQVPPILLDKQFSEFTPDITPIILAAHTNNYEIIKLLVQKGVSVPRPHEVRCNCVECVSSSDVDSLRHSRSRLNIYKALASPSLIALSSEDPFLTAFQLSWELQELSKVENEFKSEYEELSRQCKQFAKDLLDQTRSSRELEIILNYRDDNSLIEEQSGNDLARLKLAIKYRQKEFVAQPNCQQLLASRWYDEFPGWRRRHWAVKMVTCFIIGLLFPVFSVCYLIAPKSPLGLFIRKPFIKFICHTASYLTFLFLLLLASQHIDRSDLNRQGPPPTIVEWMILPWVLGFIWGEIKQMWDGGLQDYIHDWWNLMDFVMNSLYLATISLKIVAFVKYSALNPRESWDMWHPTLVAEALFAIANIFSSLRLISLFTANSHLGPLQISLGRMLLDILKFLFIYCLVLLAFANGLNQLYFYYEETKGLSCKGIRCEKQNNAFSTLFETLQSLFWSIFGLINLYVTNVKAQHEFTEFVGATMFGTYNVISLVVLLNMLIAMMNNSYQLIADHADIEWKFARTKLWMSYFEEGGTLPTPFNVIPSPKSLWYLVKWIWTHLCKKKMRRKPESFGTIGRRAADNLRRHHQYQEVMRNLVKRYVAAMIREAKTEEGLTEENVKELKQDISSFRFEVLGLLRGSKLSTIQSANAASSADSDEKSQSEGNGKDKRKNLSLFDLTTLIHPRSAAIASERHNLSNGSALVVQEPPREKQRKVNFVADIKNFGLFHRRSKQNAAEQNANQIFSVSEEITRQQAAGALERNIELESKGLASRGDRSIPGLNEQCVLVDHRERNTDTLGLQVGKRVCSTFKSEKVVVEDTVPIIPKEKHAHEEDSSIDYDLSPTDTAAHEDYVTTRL

[3] = target: T3, Rac GTPase-activating protein 1 (Homo sapiens, UniProt Q9H0H5); assay: blockers of MgcRacGAP-driven Rac1 GTP hydrolysis – biochemical, ADP Hunter fluorescence, primary and confirmatory, confirmation (AID 624330); type: functional
T3 sequence (Q9H0H5 whole entry): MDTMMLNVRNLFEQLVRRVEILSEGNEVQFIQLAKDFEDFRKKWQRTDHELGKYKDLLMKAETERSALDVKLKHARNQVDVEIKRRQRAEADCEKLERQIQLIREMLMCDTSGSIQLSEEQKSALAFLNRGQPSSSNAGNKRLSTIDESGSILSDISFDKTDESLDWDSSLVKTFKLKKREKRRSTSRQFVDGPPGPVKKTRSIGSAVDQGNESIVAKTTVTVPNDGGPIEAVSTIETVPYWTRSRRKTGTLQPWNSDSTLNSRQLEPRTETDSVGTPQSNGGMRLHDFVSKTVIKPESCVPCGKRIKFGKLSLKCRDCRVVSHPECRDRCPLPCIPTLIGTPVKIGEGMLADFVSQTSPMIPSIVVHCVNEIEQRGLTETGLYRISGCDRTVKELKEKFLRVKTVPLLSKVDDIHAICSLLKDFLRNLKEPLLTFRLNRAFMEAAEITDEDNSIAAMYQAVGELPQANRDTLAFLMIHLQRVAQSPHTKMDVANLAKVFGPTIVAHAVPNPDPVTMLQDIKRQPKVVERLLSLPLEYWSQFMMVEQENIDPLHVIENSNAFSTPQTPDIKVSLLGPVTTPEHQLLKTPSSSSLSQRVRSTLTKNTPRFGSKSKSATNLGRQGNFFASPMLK

[4] = alpha-synuclein stem-loop luciferase translation blockers – H4 neuroglioma cells, luminescence, confirmation (AID 1988); type: functional, cell-based
[5] = luciferase reporter signal suppression in cells – H4 neuroglioma cells, luminescence, dose response (AID 1990); type: functional, cell-based
[6] = non-specific 3'UTR reporter inhibition in Clone20-Shn3RL – cell-based, Renilla luciferase, cherry-picked, counter-screen for Shn3 inhibitor project, dose response (AID 624133); type: functional
INS1 = assay: INS-1E survival protection against cytokine death – cell-based, luminescence, retest, dose response (AID 449756); type: functional; conditions: Rattus norvegicus;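 note: cell death triggered by IL-1 beta plus TNF-alpha plus IFN-gamma mixture; protective hits raise ATP signal compared with cytokine alone wells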
[7] = loss of viability in HepG2 cells – cell-based, CellTiter-Glo, cherry-picked, cytotoxicity control for Shn3 inhibitor project, dose response (AID 624134); type: functional
[8] = reduction of Shn3 3'UTR-driven luciferase in osteoblasts – cell-based, Clone20 osteoblasts, firefly luciferase, cherry-picked, dose response (AID 624132); type: functional;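 note: firefly luciferase luminescence from reporter carrying the Shn3 3'UTR in osteoblasts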
[9] = Luminescence Cell-Based Dose Response HTS to Identify Inhibitors of 5'UTR Stem-Loop Driven Prion Protein mRNA Translation in H4 Neuroglioblastoma Cells. [Related pubchem assays: 1827 (Project Summary), 1813 (Primary HTS)]; type: functional
[10] = Luminescence Cell-Based Dose Retest to Confirm Inhibitors of Cancer Stem Cells. [Related pubchem assays (depositor defined):AID2717, AID2721]; type: functional; conditions: Homo sapiens
[11] = Trypanosoma cruzi growth suppression in host cells – NIH3T3 host cells, beta-gal luminescence, confirmation (AID 2044); type: functional, cell-based;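 note: intracellular parasites grown in NIH/3T3 mouse fibroblasts as host cells; luminescent beta-galactosidase reporter signal from transgenic T. cruzi replicating inside host cells; inhibitors lower the luminescence signal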
Cytochrome P450 1A2 = target: T4, Cytochrome P450 1A2 (Homo sapiens, UniProt P05177);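 note: PubChem cytochrome P450 panel assay, CYP1A2 panel member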
T4 sequence (P05177 whole entry): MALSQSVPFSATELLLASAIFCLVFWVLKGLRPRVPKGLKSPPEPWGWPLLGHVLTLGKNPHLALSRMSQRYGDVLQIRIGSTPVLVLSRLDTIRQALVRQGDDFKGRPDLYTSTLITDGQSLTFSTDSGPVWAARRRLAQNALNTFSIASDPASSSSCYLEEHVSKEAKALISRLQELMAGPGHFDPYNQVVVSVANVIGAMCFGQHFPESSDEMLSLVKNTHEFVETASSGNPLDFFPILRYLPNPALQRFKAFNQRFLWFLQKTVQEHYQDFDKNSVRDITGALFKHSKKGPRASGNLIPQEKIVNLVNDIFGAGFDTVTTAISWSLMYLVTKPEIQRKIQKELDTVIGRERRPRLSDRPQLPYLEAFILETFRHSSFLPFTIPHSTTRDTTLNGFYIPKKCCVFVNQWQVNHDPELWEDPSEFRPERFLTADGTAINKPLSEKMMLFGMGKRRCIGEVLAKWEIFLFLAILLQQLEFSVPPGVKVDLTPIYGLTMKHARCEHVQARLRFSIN

[12] = NIH3T3 cell viability loss – ATP luminescence, mouse fibroblasts, counter-screen, dose response (AID 2010); type: functional, cell-based;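 note: cells exposed to compound for about 90 hours before reading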
Cytochrome P450 2C9 = Cytochrome P450 2C9 (Homo sapiens, UniProt P11712)
Cytochrome P450 2D6 = Cytochrome P450 2D6 (Homo sapiens, UniProt P10635);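 note: CYP2D6 member of a cytochrome P450 panel assay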
Cytochrome P450 2C19 = Cytochrome P450 2C19 (Homo sapiens, UniProt P33261); assay: Cytochrome panel assay with activity outcomes. Panel member name: p450-cyp2c19 Compounds with AC50 equal or less than 10 uM are considered active; type: functional; conditions: read-out: AC50
Cytochrome P450 2C19, sequence (P33261 whole entry): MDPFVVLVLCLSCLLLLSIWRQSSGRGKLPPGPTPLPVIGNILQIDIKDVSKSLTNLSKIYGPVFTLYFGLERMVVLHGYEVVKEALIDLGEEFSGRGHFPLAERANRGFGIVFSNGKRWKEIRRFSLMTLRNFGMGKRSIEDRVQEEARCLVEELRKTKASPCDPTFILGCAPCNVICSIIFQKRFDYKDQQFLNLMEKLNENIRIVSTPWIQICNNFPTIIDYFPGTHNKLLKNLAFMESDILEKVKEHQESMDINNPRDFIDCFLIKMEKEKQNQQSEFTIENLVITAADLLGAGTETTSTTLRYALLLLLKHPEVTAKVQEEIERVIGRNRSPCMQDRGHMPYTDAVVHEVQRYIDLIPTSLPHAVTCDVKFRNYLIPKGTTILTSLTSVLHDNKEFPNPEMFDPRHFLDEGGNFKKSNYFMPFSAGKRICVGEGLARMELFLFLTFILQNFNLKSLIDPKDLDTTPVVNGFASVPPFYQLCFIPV

Cytochrome P450 2C9, sequence (P11712 whole entry): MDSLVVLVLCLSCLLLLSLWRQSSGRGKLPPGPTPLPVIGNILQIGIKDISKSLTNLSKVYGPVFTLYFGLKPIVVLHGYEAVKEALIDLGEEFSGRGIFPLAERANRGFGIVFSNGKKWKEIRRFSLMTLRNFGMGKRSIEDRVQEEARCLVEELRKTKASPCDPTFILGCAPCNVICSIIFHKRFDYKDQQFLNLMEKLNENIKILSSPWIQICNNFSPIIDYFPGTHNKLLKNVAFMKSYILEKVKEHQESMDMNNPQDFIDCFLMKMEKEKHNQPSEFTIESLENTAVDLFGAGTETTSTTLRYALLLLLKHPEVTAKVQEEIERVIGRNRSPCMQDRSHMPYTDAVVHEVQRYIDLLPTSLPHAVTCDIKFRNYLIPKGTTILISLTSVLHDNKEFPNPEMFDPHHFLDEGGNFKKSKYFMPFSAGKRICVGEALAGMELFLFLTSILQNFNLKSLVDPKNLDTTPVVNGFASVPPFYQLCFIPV
FAD-linked sulfhydryl oxidase ALR, sequence (P55789 whole entry): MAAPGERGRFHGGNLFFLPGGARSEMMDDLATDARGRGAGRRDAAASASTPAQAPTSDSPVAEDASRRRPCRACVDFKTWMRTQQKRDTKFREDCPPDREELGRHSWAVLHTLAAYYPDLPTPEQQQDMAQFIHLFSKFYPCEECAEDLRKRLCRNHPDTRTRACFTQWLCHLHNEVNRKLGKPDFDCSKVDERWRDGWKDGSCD
Cytochrome P450 2D6, sequence (P10635 whole entry): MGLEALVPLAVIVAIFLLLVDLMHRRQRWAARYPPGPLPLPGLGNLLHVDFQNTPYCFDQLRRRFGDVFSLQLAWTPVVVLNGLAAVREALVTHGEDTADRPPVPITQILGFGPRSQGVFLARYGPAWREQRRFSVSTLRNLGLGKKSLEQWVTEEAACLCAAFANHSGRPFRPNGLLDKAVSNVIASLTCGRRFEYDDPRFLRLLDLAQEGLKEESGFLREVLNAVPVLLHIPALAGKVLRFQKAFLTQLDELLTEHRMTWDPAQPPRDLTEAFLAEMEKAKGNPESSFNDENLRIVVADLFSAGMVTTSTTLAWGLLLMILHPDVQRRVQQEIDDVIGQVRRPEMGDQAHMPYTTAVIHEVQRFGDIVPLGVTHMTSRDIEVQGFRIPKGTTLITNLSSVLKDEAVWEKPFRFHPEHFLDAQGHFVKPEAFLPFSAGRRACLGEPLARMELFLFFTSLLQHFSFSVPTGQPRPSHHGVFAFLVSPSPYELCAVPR

For `COc1ccc(N2CCN(C(=O)c3cc4c(-c5cccc(OC)c5)nn(C)c4s3)CC2)cc1`, the IC50 (Protein skinhead-1) was > 100 µM (inactive).

For `NC(=O)c1ccc(CSc2nc3ccccc3s2)cc1`, the AC50 [1] was 730 nM (active).

For `O=C(NCc1cccnc1)C1CCCN(Cc2cnn(-c3ccccc3)c2-n2cccc2)C1` (centres undefined), the EC50 [2] was 1.68 µM (active).

For `CCN1CCN(c2ccc(S(=O)(=O)N3CCCCC3)cc2NC(=O)c2cccc(Cl)c2)CC1`, the EC50 [2] was 3.76 µM (active).

In the case of `CCOC(=O)C(Oc1ccc2c(-c3ccc(OC)cc3)cc(=O)oc2c1C)c1ccccc1` (centres undefined), the IC50 (Protein skinhead-1) is reported as > 100 µM (inactive).

In the case of `Cc1nc(Cc2nnc(SCC(=O)N3CCN(c4ccc(O)cc4)CC3)o2)cs1`, the IC50 [3] is reported as 30 µM (active).

With `Sc1nnc(-c2ccc3ccccc3n2)o1` the AC50 [1] was 10 nM (active).

In the case of `COc1ccc(CNCCC(c2ccc(OC(C)C)cc2)c2ccccc2OC)cc1` (centres undefined), the EC50 [4] is reported as 8.9 µM (active), the EC50 [5] is reported as 11.4 µM (active) and the AC50 [6] is reported as 20.9 µM (active). The AC50 (INS1) was 7.26 µM (active), the AC50 [7] was 13.3 µM (active) and the AC50 [8] was 3.86 µM (active). The EC50 [9] was 113 µM (active) and the AC50 [10] was 5.81 µM (active).

For `Fc1ccc(CSc2nnc(-c3cccs3)o2)cc1`, the IC50 (Protein skinhead-1) was 27.3 µM (active).

In the case of `COc1ccc(C(CNCC(O)COc2c(C)ccc(C)c2C)N(C)C)cc1` (centres undefined), the EC50 [2] is reported as 1.19 µM (active).

For `CSc1ccc(CN2CCC(C(=O)NCc3ccc(C)cc3)CC2)cc1`, the IC50 [3] was 108 µM (active).

With `O=S(=O)(c1ccc2ccccc2c1)N1CCN=C1SCc1cccnc1` the AC50 [1] was 72 nM (active).

For `CC1=C(C(=O)Nc2ccccc2F)C(c2ccsc2)C2=C(O)CC(c3ccccc3)CC2=N1` (centres undefined), the EC50 [11] was 3.32 µM (active), the AC50 (Cytochrome P450 1A2) was 11.2 µM (inconclusive) and the EC50 [12] was 8.96 µM (active). For the same compound, the AC50 (Cytochrome P450 2C9) was “inconclusive”.

With `CCCSc1nc(C)cc(C)c1S(=O)(=O)c1ccccc1C` the AC50 (Cytochrome P450 1A2) was 11.2 µM (inconclusive), the AC50 (Cytochrome P450 2C9) was “inconclusive” and the AC50 (Cytochrome P450 2D6) was 39.8 µM (inconclusive).

With `CCOC(=O)c1ccc(CNC(=O)C2CCCCC2C(=O)OCC(F)(F)F)o1` (centres undefined) the AC50 (Cytochrome P450 2C19) was 39.8 µM (inconclusive), the AC50 (Cytochrome P450 2C9) was “inconclusive” and the AC50 (Cytochrome P450 2D6) was 25.1 µM (inconclusive).

Reference: ChEMBL document CHEMBL1201862, “PubChem BioAssay data set” (2004)
